From patent US20250340519A1, “RADIOLABELLED COMPOUND” (OXFORD UNIVERSITY INNOVATION LIMITED, priority 2018, published 2025)
“And” between values parts separate entries of the source, which are not always exact repeats. Identical values can stand only once.

Legend:
PANC-1 cells = assay: Cell uptake of [18F]olaparib in PANC-1 cells; type: cell-based, human; details: radiation dose-dependent
Procedure: PARP1 levels in a limited selection of PDAC cell lines were determined using Western blot and confirmed by immunofluorescence microscopy. […] Uptake was reported as a percentage of the total amount added, per mg of total protein recovered from the isolated cells, determined by BCA assay. Specificity of uptake was determined by blocking olaparib binding sites using an excess of cold, unlabeled olaparib, or other PARP inhibitors (rucaparib, talazoparib).
Cell uptake of ^18F-olaparib in Panc-1, MiaPaCa-2 and Capan-1 cells was determined as previously described (Cornelissen, B., Hu, M., McLarty, K., Costantini, D. & Reilly, R. M.
Cellular penetration and nuclear importation properties of 111In-labeled and 123I-labeled HIV-1 tat peptide immunoconjugates in BT-474 human breast cancer cells. Nucl Med Biol 34, 37-46, 2007; Thurber, G. M., Reiner, T., Yang, K. S., Kohler, R. H. & Weissleder, R. Effect of small-molecule modification on single-cell pharmacokinetics of PARP inhibitors. Molecular cancer therapeutics 13, 986-995, 2014; Reiner, T., et al. Imaging therapeutic PARP inhibition in vivo through bioorthogonally developed companion imaging agents. Neoplasia 14, 169-177, 2012). Aliquots of Panc-1, MiaPaca-2, and Capan-1 cells (1.5×10^5 cells/well) were seeded in 24-well plates in warm cell culture medium (500 μL) and the cells were allowed to adhere overnight. Cells were irradiated (10 Gy; dose rate 0.8 Gy/min) or sham-irradiated and then returned to an incubator (37° C., 5% CO2) for 2 h. […] In the blocking groups, non-radioactive olaparib, talazoparib, or rucaparib were also added in increasing concentrations (10 pM-10 μM. After 30 or 60 minutes, the cell culture medium was removed and combined with two washes (500 μL) of cell culture medium. The remaining monolayer of cells was then lysed with 0.1 M sodium hydroxide for 20 minutes at room temperature. The amount of radioactivity contained within the cell culture medium and the cell lysate fractions was measured using a gamma counter. Protein levels from parallel plates were quantified using a Pierce BCA protein assay kit (Thermo Scientific) according to the manufacturer's recommendations and bovine serum albumin was used as the protein standard. Cell uptake levels of [^18F]-olaparib were normalised to percent of the total added radioactivity per milligram protein. […] IC50 values were calculated using GraphPad Prism software (GraphPad Software, San Diego, CA, USA). […]
Aliquots of Panc-1, MiaPaca-2, and Capan-1 cells (7.5×10^4 cells/well) were seeded in 24-well plates in warm cell culture medium (500 μL). […] The amount of radioactivity contained within the cell culture medium and the cell lysate fractions was measured using a gamma counter. […]

[1] = system: U87MG and U251MG xenografts; assay: 18F-olaparib biodistribution in U87MG and U251MG tumour xenograft mouse models; type: in vivo, Balb/c nude mice; details: both U87MG and U251MG tumours, 60-120 min p.i.
Procedure: U87MG and U251MG xenografts were generated in Balb/c nude mice. The xenograft models were administered various doses (0.5, 1.0, 4.0, and 8.0 μg) of ^18F-olaparib by tail vein injection. At 60-120 min post-injection, mice were sacrificed and organs were collected for biodistribution; see FIGS. 27(a) and (b), and FIG. 28(a). […] We predicted that the uptake for the U251MG xenografts would be greater, but in vivo there is no significant difference between the % ID/g for the U251MG or U87MG xenograft tumours.
A 20-fold excess of cold olaparib was injected via tail vein 60 m prior to 1 μg of ^18F-olaparib via tail vein. The mice were sacrificed at 60-120 min post-injection and organs were harvested.

Panc-1 xenograft = assay: Ex vivo biodistribution in Panc-1 xenograft bearing mice; details: Panc-1 xenograft mice, 1 h p.i., individual animals

O=C(c1cc(Cc2n[nH]c(=O)c3ccccc23)ccc1[18F])N1CCN(C(=O)C2CC2)CC1 [[^18F]olaparib]
[^18F]olaparib uptake after gamma-irradiation (PANC-1 cells): increased
decrease of tumour % ID/g at 8.0 μg compared to 1.0 μg tracer [1]: > 50%
Ex vivo biodistribution Kidney (Panc-1 xenograft; + IR (10 Gy)): 10.0 % ID/g and 9.25 % ID/g and 10.6 % ID/g
Ex vivo biodistribution Large intestine (Panc-1 xenograft; + IR (10 Gy)): 27.5 % ID/g and 28.9 % ID/g and 16.2 % ID/g
Ex vivo biodistribution Liver (Panc-1 xenograft; + IR (10 Gy)): 25.1 % ID/g and 33.8 % ID/g and 45.7 % ID/g
Ex vivo biodistribution Pancreas (Panc-1 xenograft; + IR (10 Gy)): 13.6 % ID/g and 10.3 % ID/g and 11.4 % ID/g
Ex vivo biodistribution Spleen (Panc-1 xenograft; + IR (10 Gy)): 45.0 % ID/g and 20.5 % ID/g and 14.3 % ID/g
Ex vivo biodistribution Stomach (Panc-1 xenograft; + IR (10 Gy)): 4.15 % ID/g and 0.92 % ID/g and 0.87 % ID/g
Ex vivo biodistribution Bone (Panc-1 xenograft; + block (excess cold olaparib)): 1.06 % ID/g and 0.78 % ID/g and 0.80 % ID/g and 0.46 % ID/g
Ex vivo biodistribution Kidney (Panc-1 xenograft; + block (excess cold olaparib)): 13.1 % ID/g and 5.09 % ID/g and 3.98 % ID/g and 2.44 % ID/g
Ex vivo biodistribution Large intestine (Panc-1 xenograft; + block (excess cold olaparib)): 20.1 % ID/g and 13.3 % ID/g and 61.4 % ID/g and 12.7 % ID/g
Ex vivo biodistribution Liver (Panc-1 xenograft; + block (excess cold olaparib)): 29.1 % ID/g and 32.9 % ID/g and 22.4 % ID/g and 23.1 % ID/g
Ex vivo biodistribution Pancreas (Panc-1 xenograft; + block (excess cold olaparib)): 1.92 % ID/g and 2.29 % ID/g and 1.91 % ID/g and 1.79 % ID/g
Ex vivo biodistribution Small intestine (Panc-1 xenograft; + block (excess cold olaparib)): 89.9 % ID/g and 77.2 % ID/g and 96.4 % ID/g and 132 % ID/g
Ex vivo biodistribution Spleen (Panc-1 xenograft; + block (excess cold olaparib)): 1.62 % ID/g and 1.46 % ID/g and 1.24 % ID/g and 0.69 % ID/g
Ex vivo biodistribution Stomach (Panc-1 xenograft; + block (excess cold olaparib)): 1.44 % ID/g and 0.79 % ID/g and 0.46 % ID/g and 0.21 % ID/g
Ex vivo biodistribution Bone (Panc-1 xenograft; tracer alone): 3.38 % ID/g and 4.54 % ID/g
Ex vivo biodistribution Kidney (Panc-1 xenograft; tracer alone): 10.5 % ID/g and 7.95 % ID/g and 6.02 % ID/g and 7.04 % ID/g and 3.41 % ID/g and 3.66 % ID/g
Ex vivo biodistribution Large intestine (Panc-1 xenograft; tracer alone): 12.6 % ID/g and 30.5 % ID/g and 80.8 % ID/g and 27.0 % ID/g and 28.9 % ID/g and 6.61 % ID/g
Ex vivo biodistribution Liver (Panc-1 xenograft; tracer alone): 26.2 % ID/g and 34.6 % ID/g and 27.0 % ID/g and 21.0 % ID/g and 13.5 % ID/g and 18.0 % ID/g
Ex vivo biodistribution Pancreas (Panc-1 xenograft; tracer alone): 8.49 % ID/g and 9.38 % ID/g and 7.25 % ID/g and 5.52 % ID/g and 2.78 % ID/g and 4.24 % ID/g
Ex vivo biodistribution Small intestine (Panc-1 xenograft; tracer alone): 54.5 % ID/g and 58.1 % ID/g and 30.6 % ID/g and 31.9 % ID/g and 18.6 % ID/g and 26.6 % ID/g
Ex vivo biodistribution Spleen (Panc-1 xenograft; tracer alone): 17.5 % ID/g and 13.7 % ID/g and 11.3 % ID/g and 14.0 % ID/g and 7.36 % ID/g and 8.01 % ID/g
Ex vivo biodistribution Stomach (Panc-1 xenograft; tracer alone): 2.59 % ID/g and 3.53 % ID/g and 1.81 % ID/g and 1.80 % ID/g and 0.55 % ID/g and 0.60 % ID/g
